The text below walks through data of patent US20050192264A1, “Slow release steroid composition” (priority 2004, published 2005).

Converted amounts (≈) assume the structure as drawn. Like-named read-outs stand apart in the source and are kept apart here.

The nature of data set [1]: Saline saturated with TA (filter validation stock). It counts as physicochemical. The method, then: Solutions at 1% and 10% of saturation were prepared from a stock of saline saturated with TA (15 μg/mL). The solutions were filtered through a syringe filter and aliquots (200 μL) of the filtrate were collected. […] Consequently, an 800 μL prefiltration volume (see dissolution method above) was assumed sufficient to ensure that the filtrate concentration was representative of the dissolved TA concentration in the dissolution vessel.

For data set [2] the following is noted: cited from earlier work.
Data set [3] in a line: Flow-through dissolution of TA samples in 20% methanol in water. The following applies: solvent solution 20% methanol in water. It counts as physicochemical. The method, then: Samples were prepared by dispensing 10 mg of sample into 10 mL of a balanced salt solution comprising 1% Tween 80. The sample in solution was then subjected to vigorous shaking and a number of rapid expulsions through a 22 gauge needle. 2 mL of this suspension was then filtered through a […] Durapore membrane filter which retained essentially all of the particles. The filter is then rinsed with 2 mL water.
This method of sample preparation avoids the problem of particles formed of large agglomerations of crystals which appear to dissolve as large crystals and therefore bias results.
Dissolution was performed using a flow through system that pumps a degassed solvent solution of 20% methanol in water through the dissolution chamber at around 11 mL per minute. […] The combination of flow rate and solvent solution dissolves the TA crystals at a rate that enables a flow-through cell to record absorbance values in the acceptable range for virtually all of the 30 minute run time and for the experiment to be completed in a reasonable period. […]
Approximately 2 mg of sample was prepared on a filter as outlined above. […] The absorbance was recorded on a chart recorder with 2 absorbance units causing 100% pen deflection.
Dissolution studies were carried out for a period of 30 minutes with a flow rate of 11 mL per minute. Average absorbance values over 2 minute periods were calculated. […]

Data set [4] can be described thus: Equilibrium solubility of triamcinolone acetonide in various media (HPLC). Format: physicochemical. The following applies: thermodynamic from solid, read-out: Triamcinolone acetonide conc. (equilibrium solubility). The source says:
An HPLC assay method was developed for TA. This was used to determine the equilibrium solubility for TA in various media. It was considered that a solution of acetonitrile may be advantageous for the maintenance of sink conditions, wherein a large surplus of solvent/absorbant/carrier capacity is maintained.

Data set [5] concerns clinically significant macular edema. The conditions noted are these: intravitreal injection of the usual dose (4 mg); cited from earlier work.

In the case of `CC1(C)O[C@@H]2CC3C4CCC5=CC(=O)C=CC5(C)[C@@]4(F)C(O)CC3(C)C2(C(=O)CO)O1` (stereo partly shown) [triamcinolone acetonide, 9-fluoro-11,21-dihydroxy-16,17-[1-methylethylidinebis(oxy)]pregna-1,4-diene-3,20-dione], the “concentration of saline saturated with TA” value in data set [1] is 15000 ng/mL. For the same molecule, the “persistence at measurable concentrations in the vitreous humour” value in data set [2] (patients who have not undergone vitrectomy, assuming five half-lives) is 93 ± 28 days. Further, the mean elimination half-life in data set [2] (single intravitreal injection, nonvitrectomized patients) is 18.6 days. The “solubility of TA in the solvent solution relative to TA in water alone” value in data set [3] is reported as 2-3 times. The solubility thermodynamic in data set [4] (5% Acetonide, aqueous with cosolvent or surfactant or cyclodextrin) amounted to 5.2 µg/mL (≈ 12 µM); in data set [4] (10% Acetonide, aqueous with cosolvent or surfactant or cyclodextrin) it was 9.1 µg/mL (≈ 20.9 µM); in data set [4] (30% Acetonide, aqueous with cosolvent or surfactant or cyclodextrin) it was 128 µg/mL (≈ 295 µM); in data set [4] (distilled water, water), 8.8 µg/mL (≈ 20.3 µM); in data set [4] (normal saline, saline or isotonic), 8.2 µg/mL (≈ 18.9 µM). In data set [5], the “time after which beneficial effects are diminished” value is given as “approximately three”.
